≈ marks a conversion by molar mass, not a printed value. Where “and” joins values, the source holds several entries; their conditions need not be identical. Equal entries are not always repeated. Where two headings read alike, the source gives them in different places.
How the values were obtained:
[1] = test system: ampicillin-resistant Escherichia coli biofilm; assay: Biofilm on PE-50 catheters in vitro, survival rate; format: cell-based; settings: 6 hours; for elimination of biofilm by single agent: 20 mM glutamine or 160 μg/mL ampicillin alone; for bacterial survival rate in biofilm (treatment group/saline control): 20 mM glutamine, 160 μg/mL ampicillin, 20 mM glucose as present
Experimental: (§1) Single clone of ampicillin-resistant Escherichia coli was selected and incubated in LB medium overnight, then transferred into 2 mL fresh LB medium according to the proportion of 1:200 dilutions and transferred to 6 mm ultraviolet sterilized PE-50 catheters. The catheters were inoculated in 1 mL LB at 37 for 24 h. The culture medium was changed every 24 hours for 3 days. The biofilm of ampicillin-resistant bacteria in PE50 catheters were washed with 1 mL sterile phosphate-buffered saline five times to remove loosely adherent cells, and then transferred to 1.5 mL EP tubes.
The test was divided into six groups: saline solution control, 20 mM glutamine, 160 μg/mL ampicillin, 160 μg/mL ampicillin plus 20 mM glutamine, 160 μg/mL ampicillin plus 20 mM glucose, 160 μg/mL ampicillin plus 20 mM glutamine and 20 mM glucose. The catheters were cultured in a shaker at 200 rpm at 37 for 6 hours. The bacterial biofilm was removed from catheters with sonication for 10 minutes. Serial dilutions and spot-plating were performed to determine the cell number. The bacterial survival rate was calculated as: viable counts in treatment group/viable counts in control group×100%.

[2] = test system: antibiotic-resistant bacteria in kidneys; assay: Mouse urinary tract infection model, bacterial content in kidneys; format: in vivo; settings: mice, tail i.v. twice-daily for 3 days; glutamine 100 mg kg−1, glucose 100 mg kg−1, ampicillin 320 mg kg−1 as present; saline group 16750
Experimental: (§2) In vivo experiments in mice, female mice (5 weeks, weighing 18-20 g) received surgical implantation in the urinary tract of PESO catheter tubes. The mice were randomly divided into six groups in 48 h after the surgery, five each group. The six groups included treatment with saline (group 1), 100 mg kg^−1 glutamine (group 2), 320 mg kg^−1 ampicillin (group 3), 100 mg kg^−1 glutamine plus 320 mg kg^−1 ampicillin (group 4), 100 mg kg^−1 glucose plus 320 mg kg^−1 ampicillin (group 5), and 100 mg kg^−1 glutamine and 100 mg kg^−1 glucose plus 320 mg kg^−1 ampicillin (group 6) by tail intravenous injection for 3 days, twice-daily. Catheter tubes were extracted in 24 hours after the last treatment. To dislodge biofilm cells, catheters were suspended in saline solution with ultrasonic. Serial dilutions and spot-plating were performed to determine the bacterial survival rate in biofilm. The survival rate was calculated as: viable counts in treatment group/viable counts in control group×100%.
Meanwhile, kidneys of mice were homogeneous with appropriate amount of saline. Bacterial content in kidneys was determined by plate counting method.

[3] = test system: Escherichia coli K12 BW25113; assay: MIC by double dilution method, initial bacteria; format: cell-based; settings: Escherichia coli, BW25113, read-out: MIC0
Experimental: (§3) Escherichia coli is a bacterium that is most commonly found in the gut of human and animal. It mainly parasitizes in the intestines, and accounts for about 1% of the intestine bacteria. Minimum inhibitory concentration (MIC) of Escherichia coli K12 BW25113 for ten kinds of antibiotics was detected with double dilution method. Escherichia coli K12 BW25113 of 10^5 colony forming unit/ml was cultured respectively in Luria-Bertani (LB) liquid medium separately with each of ten antibiotics at the concentration of ½ MIC at 37° C., and was serially passaged 10 times, so that the MIC of single colony was determined.

[4] = test system: ampicillin-resistant Escherichia coli (AMP-R); format: cell-based
Experimental: (§4) Bacterium cultures of 20 mL were collected and centrifuged at 8,000 rpm for 5 minutes. The bacterial pellets were washed with equal volume of 0.85% saline solution, suspended in M9 medium containing 10 mM sodium acetate and then adjusted to OD600 of 0.5. […] These mixtures were cultured in a shaker at 200 rpm at 37° C. for 4 h. Then 100 μL of bacterial suspension was used for bacterial plate counting.
To investigate the effect of antibiotic dose on the sensitivity of bacteria to antibiotics by glutamine, 20 mM glutamine and 20, 40, 80, 160, 240, 320 and 400 μg/mL ampicillin were used to treat ampicillin-resistant Escherichia coli for 4 hours, and then bacterial plate counting was conducted. The survival rates of bacteria with and without glutamine were compared at the same antibiotic concentration.
To investigate the effect of exposure time on the killing efficiency, the viable counts of bacteria were counted during 1-8 hours after spiked with 20 mM glutamine and 160 μg/mL ampicillin.
To investigate the effect of glutamine concentration on killing efficiency and the optimum bactericidal concentrations, different concentrations of glutamine were added to 160 μg/mL ampicillin. The number of live bacteria was counted after 4 hours. The survival rate was calculated according to the formula below: viable counts at different concentration of glutamine/viable counts without glutamine×100%.
Single clone of ampicillin-resistant Escherichia coli was selected and inoculated in 100 mL LB medium and cultured at 200 rpm at 37° C. for 16 hours. Bacterial suspension of 20 mL was collected and centrifuged at 8,000 rpm for 5 min. The resulting bacterial pellets were washed with equal volume of 0.85% saline solution, suspended in M9 medium containing 10 mM sodium acetate and then adjusted to […] of 0.5. Aliquots of 5 mL bacterial cells were transferred to test tubes for further application.
The sample was added with 160 μg/mL ampicillin and 0-20 Mm glucose, then cultured in a shaker at 200 rpm at 37° C. for 4 hours. The cell number was counted and survival rate was calculated. […]

[5] = test system: Escherichia coli K12 BW25113 (control bacteria); assay: Viable counts and survival rate of control bacteria; format: cell-based; settings: 4 hours
Experimental: (§5) The viable counts and survival rate of bacteria were calculated after added with 20 mM glutamine and 160 μg/mL ampicillin for 4 hours.
(§6) The viable counts and survival rate of bacteria were calculated after added with 20 mM glutamine and 4 kinds of penicillins (does for control bacteria were: ampicillin 25 μg/mL, penicillin G 200 μg/mL, amoxicillin 20 μg/mL, carbenicillin 100 μg/mL; does for antibiotic resistant bacteria were: ampicillin 320 μg/mL, penicillin G 2560 μg/mL, amoxicillin 512 μg/mL, carbenicillin 320 μg/mL) for 4 hours.
The viable counts and survival rate of bacteria were calculated after added with 20 mM glutamine and antibiotics at the concentration of 8 times of MIC for 4 hours.

[6] = test system: antibiotic-resistant Escherichia coli (passaged K12 BW25113); assay: MIC of single colony after 10 serial passages with antibiotic at 1/2 MIC; format: cell-based
Experimental: as §3

[7] = test system: ampicillin-resistant Escherichia coli biofilm; assay: Mouse urinary tract catheter biofilm model, bacterial survival rate in biofilm; format: in vivo; settings: mice, tail intravenous injection twice-daily for 3 days; glutamine 100 mg kg−1, glucose 100 mg kg−1, ampicillin 320 mg kg−1 as present
Experimental: as §1
as §2, with “To dislodge biofilm cells, catheters were suspended in saline solution with ultrasonic. Serial dilutions and spot-plating were performed to determine the bacterial survival rate in biofilm.” left out

[8] = test system: eight species of antibiotic resistant Escherichia coli; assay: Viable counts and survival rate of several antibiotic resistant bacteria with ampicillin; format: cell-based; settings: 20 mM glutamine, 160 μg/mL ampicillin, 4 hours
Experimental: as §5

[9] = test system: Staphylococcus aureus, Edwardsiella tarda, Beta streptococcus, Pseudomonas aeruginosa, Escherichia coli, Vibrio alginolyticus and Vibrio parahaemolyticus; assay: Plate counting of several species of bacteria with ampicillin and glutamine; format: cell-based; settings: 20 mM glutamine and ampicillin at double MIC for each strain, 4 hours
Experimental: (Staphylococcus aureus, B. streptococcus, Pseudomonas aeruginosa, Escherichia coli) or 30° C. (the others) for 16 hours.

[10] = test system: penicillin-resistant Escherichia coli (4 antibiotic resistant bacteria); assay: Viable counts and survival rate of penicillin-resistant bacteria with 4 penicillins; format: cell-based; settings: 20 mM glutamine with ampicillin 320 μg/mL, penicillin G 2560 μg/mL, amoxicillin 512 μg/mL or carbenicillin 320 μg/mL, 4 hours
Experimental: as §6, with “To investigate whether the sensitivity of Escherichia coli and antibiotic resistant Escherichia coli to penicillin antibiotics was improved with glutamine, the samples of control bacteria and penicillin-resistant bacteria were prepared according to Embodiment 2.1. The” for “The”, “hours. […] The sensitivity of control bacteria increased 38-1000 times and 71-1900 times for 4 antibiotic resistant bacteria when added with glutamine.” for “hours.”

[11] = test system: 6 species of antibiotic resistant Escherichia coli (GEN-R, AMP-R, BLFX-R, KAN-R, NA-R and CAZ-R); settings: 20 mM glutamine plus 8 μg/mL balofloxacin, 50 μg/mL gentamicin, 160 μg/mL nalidixic acid, ceftazidime, kanamycin or ampicillin; 4 h
Experimental: as §4

## CC1(C)S[C@@H]2[C@H](NC(=O)[C@H](N)c3ccccc3)C(=O)N2[C@H]1C(=O)O [ampicillin]
[1]
  elimination of biofilm by single agent: did not eliminate the antibiotic-resistant bacterium biofilm
  bacterial survival rate in biofilm (treatment group/saline control): 92.84%
[2]
  bacterial content in kidneys: 9129 cell/g
[3]
  MIC: 6.25 µg/mL (≈ 17.9 µM)
[4]; 20 μg/mL ampicillin, without or with 20 mM glutamine, 4 hours
  survival rate: 99.81%
[4]; 40 μg/mL ampicillin, without or with 20 mM glutamine, 4 hours
  survival rate: 97.27%
[4]; 80 μg/mL ampicillin, without or with 20 mM glutamine, 4 hours
  survival rate: 95.55%
[4]; 160 μg/mL ampicillin without glutamine, 7 hours
  survival rate: 74%
[4]; 160 μg/mL ampicillin without glutamine, after 8 hours
  survival rate: 66.19%
[4]; 160 μg/mL ampicillin without glutamine, during 1-4 hours
  viable counts of bacteria: remained unchanged
[4]; 160 μg/mL ampicillin, without glucose or with increasing glucose (0-20 Mm), 4 hours
  survival rate: 94.33%
[4]; 160 μg/mL ampicillin, without glutamine or with increasing glutamine concentration, 4 hours
  survival rate: 94.33%
[4]; 160 μg/mL ampicillin, without or with 20 mM glutamine, 4 hours
  survival rate: 93.72%
[4]; 240 μg/mL ampicillin, without or with 20 mM glutamine, 4 hours
  survival rate: 86.72%
[4]; 320 μg/mL ampicillin, without or with 20 mM glutamine, 4 hours
  survival rate: 83.51%
[4]; 400 μg/mL ampicillin, without or with 20 mM glutamine, 4 hours
  survival rate: 67.15%
[5]; 160 μg/mL ampicillin, without or with 20 mM glutamine
  survival rate: 74.22%
[6]; Escherichia coli, BW25113, read-out: MIC10
  MIC: 400 µg/mL
[6]; ratio of MIC after to before passage
  MIC10/MIC0: 64
[7]
  bacterial survival rate in catheter biofilm in comparison with saline control: 76.81%

## NC(=O)CC[C@H](N)C(=O)O [glutamine]
[1]
  elimination of biofilm by single agent: did not eliminate the antibiotic-resistant bacterium biofilm
  bacterial survival rate in biofilm (treatment group/saline control): 96.03%
[2]
  bacterial content in kidneys: 9113 cell/g
[4]; 20 mM glutamine, 20 μg/mL ampicillin, 4 hours
  killing efficiency increase compared with the treatment without glutamine: 1.12 folds
[4]; 20 mM glutamine, 40 μg/mL ampicillin, 4 hours
  killing efficiency increase compared with the treatment without glutamine: 1.57 folds
[4]; 20 mM glutamine, 80 μg/mL ampicillin, 4 hours
  killing efficiency increase compared with the treatment without glutamine: 1.95 folds
[4]; 20 mM glutamine, 160 μg/mL ampicillin, 4 h
  elevated sensitivity of ampicillin-resistant bacteria to ampicillin: about 200 folds
[4]; 20 mM glutamine, 160 μg/mL ampicillin, 4 hours
  killing efficiency increase compared with the treatment without glutamine: 7.66 folds
[4]; 20 mM glutamine, 160 μg/mL ampicillin, after 4 hours or more
  killing efficiency increase: 8-22 times
[4]; 20 mM glutamine, 240 μg/mL ampicillin, 4 hours
  killing efficiency increase compared with the treatment without glutamine: 24.29 folds
[4]; 20 mM glutamine, 320 μg/mL ampicillin, 4 hours
  killing efficiency increase compared with the treatment without glutamine: 137.78 folds
[4]; 20 mM glutamine, 400 μg/mL ampicillin, 4 hours
  killing efficiency increase compared with the treatment without glutamine: 171.34 folds and 200 folds
[8]
  sensitivity to ampicillin increased: 4-36 times
[9]
  sensitivity of several species of bacteria to ampicillin: improved generally
[5]; 20 mM glutamine with ampicillin 25 μg/mL, penicillin G 200 μg/mL, amoxicillin 20 μg/mL or carbenicillin 100 μg/mL
  sensitivity to four types of penicillins increased: 38-1000 times
[5]; 20 mM glutamine with tetracycline, erythromycin, clindamycin or rifampicin at 8 times of MIC
  sensitivity to 4 kinds of antibiotics improved: approximately 1.5 times
[5]; 20 mM glutamine, 160 μg/mL ampicillin
  sensitivity to ampicillin increased: 1.75 times
[10]
  sensitivity to four types of penicillins increased: 71-1900 times
[11]
  sensitivity of antibiotic resistant bacteria to respective antibiotic: improved the sensitivity of 6 species of antibiotic resistant bacteria to respective antibiotic
[7]
  bacterial survival rate in catheter biofilm in comparison with saline control: 88.24%

Reference: patent publication US9962351B2, “Small molecule substance for improving sensitivity of bacteria to antibiotics” (priority 2012, dated 2018)
